Where two headings read alike, the source gives them in different places. Strand notation (5' to 3'): a small letter for the sugar, then the base; units joined by * are phosphorothioate-linked, units joined directly phosphodiester-linked; [ ] holds rarer units or linkages, { } end groups; capitals alone tell only the bases. d = 2'-deoxy (DNA)
Assays:
DNA synthesis = DNA synthesis by BrdU incorporation normalized to viable cells; format: cell-based; settings: cell lines that do not undergo significant apoptosis, 100 nM, 20 hr (FIG. 15)
p53 = assay: BP100-luciferase reporter in several representative cell lines; format: cell-based; settings: stably transfected cell lines, 20 hr (FIG. 13)
Method: Cells stably transfected with the BP100-luciferase reporter were treated with antisense oligonucleotides at indicated concentrations for 20 hr. Luciferase activity/unit protein was determined and the magnitude of induction was shown compared to cells not treated with oligonucleotides. AS2M4: a 4 bp mismatch control of AS5-2. K: an unrelated oligonucleotide.
In order to determine whether the p53 protein that accumulates after inhibition of MDM2 is functionally active, a p53-responsive BP100-luciferase reporter plasmid was transfected into several representative cell lines. Stably transfected cells were then treated with AS5-2 or control oligonucleotides. […] The magnitude of p53 transcription activation is consistent with the fact that most of the p53 accumulation occurs in the nucleus, which has a low basal level of p53.

[1] = mice bearing DLD-1 xenografts
[2] = test system: MDM2, p53 and p21 protein levels in DLD-1 cells; assay: Western blot of MDM2, p53 and p21 in DLD-1 cells; format: cell-based, human
Source text: (§1) Chemicals and Reagents. Cell culture media and phosphate-buffered saline (PBS) were obtained from Sigma Chemical Co. (St. Louis, Mo.). Fetal bovine serum (FBS), antibodies against p53 and p21, Lipofectin, trypsin, penicillin-streptomycin, and trypan blue stain were purchased from GIBCO-BRL (Grand Island, N.Y.). The anti-human-MDM2 monoclonal antibody (Chen L. et al., Proc Natl Acad Sci USA, 95: 195-200, 1998; Chen L. et al., Mol. Med. 5: 21-34, 1999) was kindly provided by J. Chen (Moffitt Cancer Center, Tampa, Fla.). Chemotherapeutic agents adriamycin and 5-fluorouracil (5-FU) were obtained from Sigma. Natural product topoisomerase I inhibitor 10-hydroxycamptothecin (HCPT) was obtained from the Midwest Co. (Beijing, China) with the purity of the drug being greater than 98% (Zhang R. et al., Cancer Chemother Pharm 41: 257-267, 1998). Cell Culture. The tumor cell lines, LS174T and DLD-1 were obtained from the American Type Culture Collection (Rockville, Md.) and cultured according to their instructions. LS 174T cells were cultured in MEM with 0.1 mM nonessential amino acids and Earle's balanced salt solution containing 10% FBS and DLD-1 cells in RPMI 1640 medium containing 10% FBS. All media included 1% penicillin/streptomycin. […] Cells were incubated with Oligos AS or ASM at various concentrations for 72 hr, in the presence of Lipofectin (7 μg/ml). […] Western Blot Analysis. The MDM2, p53 and p21 levels in cultured cells were analyzed by using the methods described previously (earlier (Chen L. et al., Proc Natl Acad Sci USA, 95: 195-200, 1998; Chen L. et al., Mol. Med. 5: 21-34, 1999; Wang H. et al., Int J. Oncol. 15: 653-660, 1999). In brief, cell lysate containing identical amounts of total protein were fractionated by SDS-PAGE and transferred to Bio-Rad Trans-Blot nitrocellulose membranes (Bio-Rad Laboratories, Hercules, Calif., USA). The nitrocellulose membrane was then incubated with blocking buffer (PBS containing 0.1% Tween 20 and 5% non-fat milk) for 1 hr at room temperature and washed with the washing buffer (PBS containing 0. 1% Tween 20) for 5 min twice. The membrane was incubated with primary (anti-MDM2, anti-p53, or anti-p21) antibody overnight at 4° C. or for 1 hr at room temperature with gentle shaking. The membrane was washed with the washing buffer for 15 min and then twice for 5 min, and then incubated with 1:5000 diluted goat anti-mouse IgG-horse radish peroxidase conjugated antibody (Bio-Rad, Hercules, Calif.) for 1 hr at room temperature. After washing as described above the protein of interest was detected by ECL reagents from Amersham (Arlington Height, Ill.). Results. LS174T Model. In vitro inhibition of MDM2 expression by Oligo AS was shown in a sequence-specific, increasing dose-dependent manner (FIG. 19). […] Control oligonucleotide, Oligo ASM had no effect on MDM2, p53 or p21 protein levels at 500 nM, the highest concentration tested in the study.
Following in vitro combination treatment of Oligos and chemotherapeutic agents HCPT, adriamycin, and 5-FU, the protein levels of MDM2, p53 and p21 were determined in DLD-1 cells. Cells were incubated with 200 nM Oligo in the presence of Lipofectin for 24 hr, followed by addition of various concentrations of chemotherapeutic agents and incubation for an additional 24 hr.

[3] = test system: human colon cancer LS174T xenografts; assay: Tumor growth in nude mice bearing LS174T xenografts
DLD-1 cells = assay: DLD-1 cell growth by trypan blue viability staining; format: cell-based, human; settings: 72 hr, Lipofectin
Source text: (§2) Chemicals and Reagents. Cell culture media and phosphate-buffered saline (PBS) were obtained from Sigma Chemical Co. (St. Louis, Mo.). Fetal bovine serum (FBS), antibodies against p53 and p21, Lipofectin, trypsin, penicillin-streptomycin, and trypan blue stain were purchased from GIBCO-BRL (Grand Island, N.Y.). The anti-human-MDM2 monoclonal antibody (Chen L. et al., Proc Natl Acad Sci USA, 95: 195-200, 1998; Chen L. et al., Mol. Med. 5: 21-34, 1999) was kindly provided by J. Chen (Moffitt Cancer Center, Tampa, Fla.). Chemotherapeutic agents adriamycin and 5-fluorouracil (5-FU) were obtained from Sigma. […] The MDM2, p53 and p21 levels in cultured cells were analyzed by using the methods described previously (earlier (Chen L. et al., Proc Natl Acad Sci USA, 95: 195-200, 1998; Chen L. et al., Mol. Med. 5: 21-34, 1999; Wang H. et al., Int J. Oncol. 15: 653-660, 1999). In brief, cell lysate containing identical amounts of total protein were fractionated by SDS-PAGE and transferred to Bio-Rad Trans-Blot nitrocellulose membranes (Bio-Rad Laboratories, Hercules, Calif., USA). The nitrocellulose membrane was then incubated with blocking buffer (PBS containing 0.1% Tween 20 and 5% non-fat milk) for 1 hr at room temperature and washed with the washing buffer (PBS containing 0. […]

LS174T cells = assay: LS174T cell growth by trypan blue viability staining; format: cell-based, human; settings: 72 hr, Lipofectin
Source text: as §2

[4] = test system: human colon cancer DLD-1 xenografts; assay: Tumor growth in nude mice bearing DLD-1 xenografts; format: in vivo
[5] = mice bearing LS174T xenografts
[6] = test system: MDM2, p53 and p21 protein levels in LS174T cells; assay: Western blot of MDM2, p53 and p21 in LS174T cells; format: cell-based, human; settings: up to 500 nM, 24 hr, Lipofectin
[7] = test system: MDM2, p53 and p21 protein levels in LS174T cells; assay: Western blot of MDM2, p53 and p21 in LS174T cells; format: cell-based, human; settings: 400 nM Oligo 24 hr
Source text: as §1
Following in vitro combination treatment of Oligos and chemotherapeutic agents HCPT, adriamycin, and 5-FU, the protein levels of MDM2, p53 and p21 were determined in LS174T cells. Cells were incubated with 400 nM Oligo in the presence of Lipofectin for 24 hr, followed by addition of various concentrations of chemotherapeutic agents and incubation for additional 24 hr.

[8] = day 3, oligo 20, HCPT 3, 5-FU 10 mg/kg/day
[9] = day 6, oligo 20, HCPT 3, 5-FU 10 mg/kg/day
[10] = day 9, oligo 20, HCPT 3, 5-FU 10 mg/kg/day
[11] = day 12, oligo 20, HCPT 3, 5-FU 10 mg/kg/day
[12] = day 15, oligo 20, HCPT 3, 5-FU 10 mg/kg/day

Substance: AS2M4: 4 bp mismatch control of AS5-2, 5′-TGACTCTTGTCCTTACTCAC-3′; SEQ ID NO: 26 (DNA dT*dG*dA*dC*dT*dC*dT*dT*dG*dT*dC*dC*dT*dT*dA*dC*dT*dC*dA*dC)
- rate of DNA synthesis (BrdU incorporation) (DNA synthesis): weaker
- induction of p53 transcription function (p53): significantly reduced efficiency

Substance: Oligo ASM: mismatched control of Oligo AS, 5′-UGTCACCCTTTTTCATUCAC-3′; SEQ ID NO:50 (chemistry not given here)
- Survival Rates of Animals ([1]; day 3): 100%
- Survival Rates of Animals ([1]; day 6): 100%
- Survival Rates of Animals ([1]; day 9): 100%
- Survival Rates of Animals ([1]; day 12): 100%
- Survival Rates of Animals ([1]; day 15): 100%
- Survival Rates of Animals ([1]; day 18): 100%
- Survival Rates of Animals ([1]; day 21): 66.7%
- effect on MDM2, p53 or p21 protein levels [2]: no effect
- MDM2, p53 and p21 protein levels, oligo pre-treatment then 5-FU ([2]; 200 nM Oligo 24 hr, then 5-FU 24 hr): minimal effect
- MDM2 and p21 protein levels, oligo pre-treatment then HCPT ([2]; 200 nM Oligo 24 hr, then HCPT 24 hr): minimal effect
- MDM2 and p21 protein levels, oligo pre-treatment then adriamycin ([2]; 200 nM Oligo 24 hr, then adriamycin 24 hr): minimal effect
- effect of combination treatment on tumor growth [3]: no significant effect
- xenograft pathology (tumor histology) [3]: indistinguishable histologically
- effect on in vivo tumor growth ([3]; daily ip dose 20 mg/kg): minimal effect
- Ratio (%) of % T:C with oligo to % T:C without oligo ([2]/[1] or [3]/[1]) ([3]; day 3): 99%
- Growth ratio % T:C (mean tumor mass of treated group vs saline control) [3, 8]: 98.6%
- Ratio (%) of % T:C with oligo to % T:C without oligo ([2]/[1] or [3]/[1]) ([3]; day 6): 105%
- Growth ratio % T:C (mean tumor mass of treated group vs saline control) [3, 9]: 104.9%
- Ratio (%) of % T:C with oligo to % T:C without oligo ([2]/[1] or [3]/[1]) ([3]; day 9): 70%
- Growth ratio % T:C (mean tumor mass of treated group vs saline control) [3, 10]: 69.7%
- Ratio (%) of % T:C with oligo to % T:C without oligo ([2]/[1] or [3]/[1]) ([3]; day 12): 82%
- Growth ratio % T:C (mean tumor mass of treated group vs saline control) [3, 11]: 81.5%
- Ratio (%) of % T:C with oligo to % T:C without oligo ([2]/[1] or [3]/[1]) ([3]; day 15): 79%
- Growth ratio % T:C (mean tumor mass of treated group vs saline control) [3, 12]: 79.4%
- Ratio (%) of % T:C with oligo to % T:C without oligo ([2]/[1] or [3]/[1]) ([3]; day 18): 72%
- Growth ratio % T:C (mean tumor mass of treated group vs saline control) ([3]; day 18 (end of experiment), oligo 20, HCPT 3, 5-FU 10 mg/kg/day): 73.3%
- Ratio (%) of % T:C with oligo to % T:C without oligo ([2]/[1] or [3]/[1]) ([3]; day 18, listed as ASM): 73%
- effect on tumor cell growth (DLD-1 cells): no significant effect
- effect on tumor cell growth (LS174T cells): no significant effect
- effect of combination treatment on tumor growth [4]: no significant effect
- effect on in vivo tumor growth ([4]; 20 mg/kg/day): minimal effect
- Ratio (%) of % T:C with oligo to % T:C without oligo ([2]/[1] or [3]/[1]) ([4]; day 3): 82%
- Growth ratio % T:C [4, 8]: 81.5%
- Ratio (%) of % T:C with oligo to % T:C without oligo ([2]/[1] or [3]/[1]) ([4]; day 6): 88%
- Growth ratio % T:C [4, 9]: 87.5%
- Ratio (%) of % T:C with oligo to % T:C without oligo ([2]/[1] or [3]/[1]) ([4]; day 9): 70%
- Growth ratio % T:C [4, 10]: 79.3%
- Ratio (%) of % T:C with oligo to % T:C without oligo ([2]/[1] or [3]/[1]) ([4]; day 12): 66%
- Growth ratio % T:C [4, 11]: 66.4%
- Ratio (%) of % T:C with oligo to % T:C without oligo ([2]/[1] or [3]/[1]) ([4]; day 15): 79%
- Growth ratio % T:C [4, 12]: 79.3%
- Ratio (%) of % T:C with oligo to % T:C without oligo ([2]/[1] or [3]/[1]) ([4]; day 18): 81%
- Growth ratio % T:C ([4]; day 18, oligo 20, HCPT 3, 5-FU 10 mg/kg/day): 81.0%
- Ratio (%) of % T:C with oligo to % T:C without oligo ([2]/[1] or [3]/[1]) ([4]; day 21): 76%
- Growth ratio % T:C ([4]; day 21 (end of experiment), oligo 20, HCPT 3, 5-FU 10 mg/kg/day): 76.0%
- Survival Rates of Animals ([5]; day 3): 100%
- Survival Rates of Animals ([5]; day 6): 100%
- Survival Rates of Animals ([5]; day 9): 100%
- Survival Rates of Animals ([5]; day 12): 100%
- Survival Rates of Animals ([5]; day 15): 100%
- Survival Rates of Animals ([5]; day 18): 100%
- effect on MDM2, p53 and p21 protein levels [6]: no effect
- MDM2, p53 and p21 protein levels, oligo pre-treatment then 5-FU ([7]; then 5-FU 24 hr): minimal effect
- MDM2, p53 and p21 protein levels, oligo pre-treatment then HCPT ([7]; then HCPT 24 hr): minimal effect
- MDM2, p53 and p21 protein levels, oligo pre-treatment then adriamycin ([7]; then adriamycin 24 hr): minimal effect
